Assays:
Test in all cases: relative viability (nuclei count vs DMSO), 5 days (fraction); higher = more cells survive
NCI-H661 = test system: NCI-H661
Procedure, shortened: (§1)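 Nuclei were stained with Hoechst during a one-step fixation (final 0.05% Triton X-100, 1% formaldehyde, 1 ug/ml Hoechst) carried out 5 days after dosing, then counted on 4× images. The cells, lung cancer lines in 1536-well plates, had been dosed by pin tool the day after seeding with one drug alone or a fixed anchor-drug dose plus five library-drug doses (not always all listed) in √10 steps. Relative viability is the nuclei count in treated wells divided by that in vehicle wells, and each value is the median of duplicate plates.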

HARA = test system: HARA
Procedure, shortened: as §1

NCI-H2023 = test system: NCI-H2023
Procedure, shortened: as §1

BEN = test system: BEN
Procedure, shortened: as §1

NCI-H1650 = test system: NCI-H1650
Procedure, shortened: as §1

SK-MES-1 = test system: SK-MES-1
Procedure, shortened: as §1

NCI-H358 = test system: NCI-H358
Procedure, shortened: as §1

NCI-H1734 = test system: NCI-H1734
Procedure, shortened: as §1

NCI-H1395 = test system: NCI-H1395
Procedure, shortened: as §1

NCI-H2087 = test system: NCI-H2087
Procedure, shortened: as §1

NCI-H650 = test system: NCI-H650
Procedure, shortened: as §1

LC-2-ad = test system: LC-2-ad
Procedure, shortened: as §1

HOP-62 = test system: HOP-62
Procedure, shortened: as §1

A-427 = test system: A-427
Procedure, shortened: as §1

LOU-NH91 = test system: LOU-NH91
Procedure, shortened: as §1

NCI-H3122 = test system: NCI-H3122
Procedure, shortened: as §1

NCI-H596 = test system: NCI-H596
Procedure, shortened: as §1

EKVX = test system: EKVX
Procedure, shortened: as §1

HCC-78 = test system: HCC-78
Procedure, shortened: as §1

LXF-289 = test system: LXF-289
Procedure, shortened: as §1

COR-L 105 = test system: COR-L 105
Procedure, shortened: as §1

## COCC1(CO)C(=O)C2CCN1CC2 (stereo not drawn) [PRIMA-1MET] + COc1cc2c(Oc3ccc(NC(=O)C4(C(=O)Nc5ccc(F)cc5)CC4)cc3F)ccnc2cc1OCCCN1CCOCC1 [Foretinib] (partner 0.25 µM)
NCI-H661; first compound 0.2 µM
  relative viability: 1.07
NCI-H661; first compound 0.6325 µM
  relative viability: 1
NCI-H661; first compound 2 µM
  relative viability: 0.975
NCI-H661; first compound 6.325 µM
  relative viability: 0.988
NCI-H661; first compound 20 µM
  relative viability: 0.979
HARA; first compound 0.2 µM
  relative viability: 1
HARA; first compound 0.6325 µM
  relative viability: 0.881
HARA; first compound 6.325 µM
  relative viability: 0.742
HARA; first compound 20 µM
  relative viability: 0.704
NCI-H2023; first compound 0.2 µM
  relative viability: 1.03
NCI-H2023; first compound 0.6325 µM
  relative viability: 0.781
NCI-H2023; first compound 2 µM
  relative viability: 0.827
NCI-H2023; first compound 6.325 µM
  relative viability: 0.915
NCI-H2023; first compound 20 µM
  relative viability: 0.813
BEN; first compound 0.2 µM
  relative viability: 0.653
BEN; first compound 0.6325 µM
  relative viability: 0.586
BEN; first compound 6.325 µM
  relative viability: 0.741
BEN; first compound 20 µM
  relative viability: 0.954
NCI-H1650; first compound 0.2 µM
  relative viability: 1.45
NCI-H1650; first compound 0.6325 µM
  relative viability: 1.03
NCI-H1650; first compound 2 µM
  relative viability: 1.1
NCI-H1650; first compound 6.325 µM
  relative viability: 0.924
NCI-H1650; first compound 20 µM
  relative viability: 0.364
SK-MES-1; first compound 0.2 µM
  relative viability: 1.11
SK-MES-1; first compound 0.6325 µM
  relative viability: 0.941
SK-MES-1; first compound 2 µM
  relative viability: 0.795
SK-MES-1; first compound 6.325 µM
  relative viability: 1.15
SK-MES-1; first compound 20 µM
  relative viability: 0.955
NCI-H358; first compound 0.2 µM
  relative viability: 0.881
NCI-H358; first compound 2 µM
  relative viability: 0.592
NCI-H358; first compound 6.325 µM
  relative viability: 0.634
NCI-H358; first compound 20 µM
  relative viability: 0.0429
NCI-H1734; first compound 0.2 µM
  relative viability: 1.04
NCI-H1734; first compound 0.6325 µM
  relative viability: 0.741
NCI-H1734; first compound 2 µM
  relative viability: 0.741
NCI-H1734; first compound 6.325 µM
  relative viability: 0.759
NCI-H1734; first compound 20 µM
  relative viability: 0.0666
NCI-H1395; first compound 0.2 µM
  relative viability: 1.03
NCI-H1395; first compound 0.6325 µM
  relative viability: 0.652
NCI-H1395; first compound 2 µM
  relative viability: 1.05
NCI-H1395; first compound 6.325 µM
  relative viability: 1
NCI-H1395; first compound 20 µM
  relative viability: 0.971
NCI-H2087; first compound 0.2 µM
  relative viability: 1.29
NCI-H2087; first compound 0.6325 µM
  relative viability: 1.17
NCI-H2087; first compound 2 µM
  relative viability: 0.932
NCI-H2087; first compound 6.325 µM
  relative viability: 1.02
NCI-H2087; first compound 20 µM
  relative viability: 0.632
NCI-H650; first compound 0.2 µM
  relative viability: 1.34
NCI-H650; first compound 2 µM
  relative viability: 0.917
NCI-H650; first compound 6.325 µM
  relative viability: 1.1
NCI-H650; first compound 20 µM
  relative viability: 0.644
LC-2-ad; first compound 0.2 µM
  relative viability: 0.987
LC-2-ad; first compound 2 µM
  relative viability: 0.843
LC-2-ad; first compound 6.325 µM
  relative viability: 0.887
LC-2-ad; first compound 20 µM
  relative viability: 0.966
HOP-62; first compound 0.2 µM
  relative viability: 1.18
HOP-62; first compound 0.6325 µM
  relative viability: 1.07
HOP-62; first compound 2 µM
  relative viability: 0.931
HOP-62; first compound 6.325 µM
  relative viability: 1.1
HOP-62; first compound 20 µM
  relative viability: 0.799
A-427; first compound 0.2 µM
  relative viability: 0.902
A-427; first compound 0.6325 µM
  relative viability: 0.837
A-427; first compound 2 µM
  relative viability: 0.895
A-427; first compound 6.325 µM
  relative viability: 0.983
A-427; first compound 20 µM
  relative viability: 0.953
LOU-NH91; first compound 0.2 µM
  relative viability: 1.04
LOU-NH91; first compound 0.6325 µM
  relative viability: 0.992
LOU-NH91; first compound 2 µM
  relative viability: 0.861
LOU-NH91; first compound 6.325 µM
  relative viability: 1
LOU-NH91; first compound 20 µM
  relative viability: 0.8
NCI-H3122; first compound 0.2 µM
  relative viability: 0.739
NCI-H3122; first compound 0.6325 µM
  relative viability: 0.762
NCI-H3122; first compound 2 µM
  relative viability: 0.963
NCI-H3122; first compound 6.325 µM
  relative viability: 0.984
NCI-H3122; first compound 20 µM
  relative viability: 0.882
NCI-H596; first compound 0.2 µM
  relative viability: 0.91
NCI-H596; first compound 0.6325 µM
  relative viability: 0.924
NCI-H596; first compound 2 µM
  relative viability: 0.697
NCI-H596; first compound 6.325 µM
  relative viability: 0.318
NCI-H596; first compound 20 µM
  relative viability: 0.0971
EKVX; first compound 0.2 µM
  relative viability: 0.988
EKVX; first compound 0.6325 µM
  relative viability: 0.518
EKVX; first compound 6.325 µM
  relative viability: 1.1
EKVX; first compound 20 µM
  relative viability: 0.843
HCC-78; first compound 0.2 µM
  relative viability: 0.671
HCC-78; first compound 0.6325 µM
  relative viability: 0.477
HCC-78; first compound 6.325 µM
  relative viability: 0.54
HCC-78; first compound 20 µM
  relative viability: 0.441
LXF-289; first compound 0.2 µM
  relative viability: 1.05
LXF-289; first compound 0.6325 µM
  relative viability: 0.95
LXF-289; first compound 2 µM
  relative viability: 0.993
LXF-289; first compound 6.325 µM
  relative viability: 1.02
LXF-289; first compound 20 µM
  relative viability: 0.949
COR-L 105; first compound 0.2 µM
  relative viability: 1.48
COR-L 105; first compound 0.6325 µM
  relative viability: 1.02
COR-L 105; first compound 2 µM
  relative viability: 1.17
COR-L 105; first compound 6.325 µM
  relative viability: 1.2
COR-L 105; first compound 20 µM
  relative viability: 0.551

— the supplement of paper PMC10307832
